Experimental data taken from patent EP4624465A1, “COMPOUND SERVING AS DDR1 KINASE INHIBITOR, AND MEDICINE” (Nippon Shinyaku Co., Ltd., priority 2022, dated 2024).
pIC50: −log10 of the molar value. Structures can show the parent of a compound that is named as a salt.

What was measured:
[1] = molecular target: T1, DDR1 kinase (Homo sapiens, UniProt Q08345); assay: Evaluation of DDR1 kinase inhibition in DDR1-expressing U2OS cells (type I collagen stimulation, PathHunter detection); type: cell-based; parameters: host or cells: U2OS; conditions: type I collagen 50 µg/mL stimulation, duplicate, read-out: DDR-1 IC50
Experimental: The solution was further diluted in an E-MEM medium (Fujifilm Wako Pure Chemicals, 051-07615) containing 10% fetal bovine serum (FBS, Gibco, 10270106) to 60000, 6000, 600, 60, 6, and 0.6 nM to prepare test substance solutions. 2. […] On the following day, after the plate was left at room temperature for 1 hour, a detection solution was added to the wells at […] according to the handling instructions for the PathHunter® Detection Kit (DiscoverX, 93-0001), and then incubated at room temperature for 2 hours. After the incubation, a luminescence intensity was measured by Envision (Perkin-Elmer). Tests were performed in duplicate. 3.
Target sequence in this assay (Q08345 19-913): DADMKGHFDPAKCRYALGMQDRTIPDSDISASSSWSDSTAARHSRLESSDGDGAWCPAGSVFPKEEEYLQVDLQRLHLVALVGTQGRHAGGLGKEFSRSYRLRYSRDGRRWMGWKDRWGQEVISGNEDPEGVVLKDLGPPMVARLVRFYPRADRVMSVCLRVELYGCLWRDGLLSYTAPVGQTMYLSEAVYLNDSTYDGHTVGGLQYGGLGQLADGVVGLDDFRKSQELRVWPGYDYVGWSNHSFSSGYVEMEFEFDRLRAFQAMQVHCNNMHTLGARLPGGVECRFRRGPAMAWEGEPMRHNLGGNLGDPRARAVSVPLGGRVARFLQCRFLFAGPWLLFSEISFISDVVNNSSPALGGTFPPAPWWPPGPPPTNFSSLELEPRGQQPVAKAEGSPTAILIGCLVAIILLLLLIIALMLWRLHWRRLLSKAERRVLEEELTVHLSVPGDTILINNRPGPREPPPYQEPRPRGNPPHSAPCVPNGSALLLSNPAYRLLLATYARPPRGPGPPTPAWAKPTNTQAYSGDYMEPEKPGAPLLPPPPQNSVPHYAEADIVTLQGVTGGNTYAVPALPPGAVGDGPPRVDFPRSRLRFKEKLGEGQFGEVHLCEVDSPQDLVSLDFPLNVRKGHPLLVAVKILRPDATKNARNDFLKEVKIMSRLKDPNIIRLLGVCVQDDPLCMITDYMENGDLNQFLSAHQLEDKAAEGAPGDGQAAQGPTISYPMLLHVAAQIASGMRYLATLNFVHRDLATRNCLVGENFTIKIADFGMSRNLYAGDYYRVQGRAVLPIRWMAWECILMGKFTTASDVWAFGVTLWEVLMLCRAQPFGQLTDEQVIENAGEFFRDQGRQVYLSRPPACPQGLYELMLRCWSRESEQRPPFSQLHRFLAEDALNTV

[2] = molecular target: T1, DDR1 kinase; assay: Evaluation of DDR1 kinase inhibition (LANCE Ultra TR-FRET kinase assay); type: biochemical; parameters: purchased Carna Biosciences 08-113; conditions: DDR1 protein 0.5 nM, LANCE Ultra ULight-poly GAT substrate, 2 hours at room temperature, duplicate; read-out: DDR-1 IC50
Target sequence in this assay (Q08345 19-876 isoform Q08345-2 limits assumed): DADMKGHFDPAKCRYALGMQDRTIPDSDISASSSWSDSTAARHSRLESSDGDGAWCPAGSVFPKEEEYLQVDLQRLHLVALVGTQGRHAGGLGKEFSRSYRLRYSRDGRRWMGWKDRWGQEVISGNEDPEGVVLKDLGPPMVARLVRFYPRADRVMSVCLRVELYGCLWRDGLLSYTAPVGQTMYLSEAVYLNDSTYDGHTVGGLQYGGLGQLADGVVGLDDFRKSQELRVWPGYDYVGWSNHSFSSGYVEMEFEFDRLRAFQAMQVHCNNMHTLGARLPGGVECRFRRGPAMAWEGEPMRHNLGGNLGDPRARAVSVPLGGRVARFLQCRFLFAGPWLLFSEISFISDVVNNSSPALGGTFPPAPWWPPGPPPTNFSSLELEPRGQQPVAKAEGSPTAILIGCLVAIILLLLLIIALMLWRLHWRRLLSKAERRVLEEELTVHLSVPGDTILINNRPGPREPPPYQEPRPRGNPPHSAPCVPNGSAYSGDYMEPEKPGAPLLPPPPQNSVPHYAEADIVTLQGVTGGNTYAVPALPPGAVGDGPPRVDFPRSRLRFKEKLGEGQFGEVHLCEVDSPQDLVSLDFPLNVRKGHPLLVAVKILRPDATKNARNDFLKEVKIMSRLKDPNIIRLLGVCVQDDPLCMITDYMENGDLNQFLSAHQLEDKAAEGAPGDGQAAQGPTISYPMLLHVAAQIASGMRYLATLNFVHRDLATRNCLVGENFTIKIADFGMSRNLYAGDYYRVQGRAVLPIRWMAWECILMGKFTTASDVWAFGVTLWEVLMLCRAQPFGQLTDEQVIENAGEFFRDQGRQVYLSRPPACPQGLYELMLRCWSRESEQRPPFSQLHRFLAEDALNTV

Nc1cc(C(=O)N2CC(c3nn(Cc4cn(CC5CC(F)(F)C5)nn4)c4cccc(F)c34)C2)ccn1 [Compound E-19, 4-{3-[1-({1-[(3,3-difluorocyclobutyl)methyl]-1H-1,2,3-triazol-4-yl}methyl)-4-fluoro-1H-indazol-3-yl]azetidine-1-carbonyl}pyridin-2-amine hydrochloride]
pIC50 [1]: 7.08 | pIC50 [2]: 7.25

Nc1cc(C(=O)N2CC(c3nn(Cc4ccc(C(F)(F)F)cc4)c4cccc(F)c34)C2)ccn1 [Compound E-112, 4-[3-(4-fluoro-1-{[4-(trifluoromethyl)phenyllmethyl}-1H-indazol-3-yl)azetidine-1-carbonyl]pyridin-2-amine hydrochloride]
pIC50 [1]: 6.77 | pIC50 [2]: 8.43

Nc1cc(C(=O)N2CCC(c3nn(CC(=O)N4CCO[C@@H](C(F)(F)F)C4)c4cccc(F)c34)CC2)ccn1 [Compound E-91, 2-{3-[1-(2-aminopyridine-4-carbonyl)piperidin-4-yl]-4-fluoro-1H-indazol-1-yl]-1-[(2R)-2-(trifluoromethyl)morpholin-4-yl]ethan-1-one]
pIC50 [1]: 6.21 | pIC50 [2]: 7.96

Nc1cc(C(=O)N2CCC(c3cn(CC(=O)N4CCC[C@H]4C(F)(F)F)c4cccc(F)c34)CC2)ccn1 [Compound E-108, 2-{3-[1-(2-aminopyridine-4-carbonyp)piperidin-4-yl]-4-fluoro-1H-indol-1-yl}-1-[(2S)-2-(trifluoromethyl)pyrrolidin-1-yl]ethan-1-one]
pIC50 [1]: 7.00 | pIC50 [2]: 9.00

Nc1cc(C(=O)N2CC(c3nn(CC(=O)N4CC(F)(F)C[C@H]4CF)c4ccccc34)C2)c(F)cn1 [Compound E-237, 2-{3-[1-(2-amino-5-fluoropyridine-4-carbonyl)azetidin-3-yl]-1H-indazol-1-yl]-1-[(2S)-4,4-difluoro-2-(fluoromethyl)pyrrolidin-1-yl]ethan-1-one]
pIC50 [1]: 7.47 | pIC50 [2]: 8.42

Cc1nc(N)sc1C(=O)N1CC(c2nn(CC(=O)N3CCCC3COC(F)(F)F)c3cncc(F)c23)C1 [Compound E-183, 2-{3-[1-(2-amino-4-methyl-1,3-thiazole-5-carbonylazetidin-3-yl)-4-fluoro-1H-pyrazolo[3,4-c]pyridin-1-yl}-1-[(2S)-2-[(trifluoromethoxy)methyl]pyrrolidin-1-yl]ethan-1-one p-toluenesulfonate]
pIC50 [1]: 6.30 | pIC50 [2]: 8.06

Nc1cc(C(=O)N2CC(c3nn(CC(=O)N4CCC[C@H]4C(F)(F)F)c4cc(F)ccc34)C2)c(F)cn1 [Compound E-275, 2-{3-[1-(2-amino-5-fluoropyridine-4-carbonyl)azetidin-3-yl]-6-fluoro-1H-indazol-1-yl}-1-[(2S)-2-(trifluoromethyl)pyrrolidin-1-yl]ethan-1-one]
pIC50 [1]: 7.68 | pIC50 [2]: 8.32

Cc1c(C(=O)N2CC(c3nn(CC(=O)N4CCO[C@@H](C(F)(F)F)C4)c4ccccc34)C2)ccnc1N [Compound E-8, 2-{3-[1-(2-amino-3-methylpyridine-4-carbonyl)azetidin-3-yl]-1H-indazol-1-yl}-1-[(2R)-2-(trifluoromethyl)morpholin-4-yl]ethan-1-one]
pIC50 [1]: 6.64 | pIC50 [2]: 8.28

O=C(c1ccc2[nH]nnc2c1)N1CC(c2nn(CC(=O)N3CCC[C@H]3C(F)(F)F)c3cc(F)cc(F)c23)C1 [Compound E-169, 2-{3-[1-(1H-1,2,3-benztriazole-5-carbonyl)azetidin-3-yl]-4,6-difluoro-1H-indazol-1-yl}-1-[(2S)-2-(trifluoromethyl)pyrrolidin-1-yl]ethan-1-one]
pIC50 [1]: 5.96 | pIC50 [2]: 8.01

Nc1cc(C(=O)N2CC(c3nn(CC(=O)N4CCC[C@H]4C(F)(F)F)c4cncc(F)c34)C2)ccn1 [Compound E-54, 2-{3-[1-(2-aminopyridine-4-carbonyl)azetidin-3-yl]-4-fluoro-1H-pyrazolo[3,4-c]pyridin-1-yl}-1-[(2S)-2-(trifluoromethyl)pyrrolidin-1-yl]ethan-1-one hydrochloride]
pIC50 [1]: 6.74 | pIC50 [2]: 8.21

Nc1cc(C(=O)N2CC(c3nn(CC(=O)N4CCCC4)c4cc(F)cc(F)c34)C2)ccn1 [Compound E-76, 2-{3-[1-(2-aminopyridine-4-carbonyl)azetidin-3-yl]-4,6-difluoro-1H-indazol-1-yl}-1-(pyrrolidin-1-yl)ethan-1-one]
pIC50 [1]: 5.89 | pIC50 [2]: 7.00

C[C@@H]1COCCN1C(=O)Cn1nc(C2CN(C(=O)c3ccnc(N)c3)C2)c2c(F)cc(F)cc21 [Compound E-80, 2-{3-[1-(2-aminopyridine-4-carbonyl)azetidin-3-yl]-4,6-difluoro-1H-indazol-1-yl}-1-[(3R)-3-methylmorpholin-4-yl]ethan-1-one hydrochloride]
pIC50 [1]: 5.38 | pIC50 [2]: 7.44

Cc1c(C(=O)N2CC(c3nn(CC(=O)N4CCO[C@@H](C(F)(F)F)C4)c4cc(F)cc(F)c34)C2)ccnc1N [Compound E-51, 2-{3-[1-(2-amino-3-methylpyridine-4-carbonyl)azetidin-3-yl]-4,6-difluoro-1H-indazol-1-yl}-1-[(2R)-2-(trifluoromethyl)morpholin-4-yl]ethan-1-one hydrochloride]
pIC50 [1]: 6.40 | pIC50 [2]: 7.92

O=C(c1ccnc(NC2CC2)c1)N1CC(c2nn(CC(=O)N3CCC[C@H]3C(F)(F)F)c3cc(F)cc(F)c23)C1 [Compound E-72, 2-(3-{1-[2-(cyclopropylamino)pyridine-4-carbonyl]azetidin-3-yl)-4,6-difluoro-1H-indazol-1-yl)-1-[(2S)-2-(trifluoromethyl)pyrrolidin-1 - yllethan-1-one hydrochloride]
pIC50 [1]: 6.70 | pIC50 [2]: 8.07

Cc1nc(N)sc1C(=O)N1CC(c2nn(CC(=O)N3CCC[C@H]3C(F)(F)F)c3ccccc23)C1 [Compound E-197, 2-(3-[1-(2-amino-4-methyl-1,3-thiazole-5-carbonyl)azetidin-3-yl]-1H-indazol-1-yl}-1-[(2S)-2-(trifluoromethyl)pyrrolidin-1-yl]ethan-1-one]
pIC50 [1]: 6.82 | pIC50 [2]: 8.64

CN(CC1CC1)C(=O)Cn1nc(C2CN(C(=O)c3ccnc(N)c3)C2)c2ccccc21 [Compound E-229, 2-{3-[1-(2-aminopyridine-4-carbonyl)azetidin-3-yl]-1H-indazol-1-yl}-N-(cyclopropylmethyl)-N-methylacetamide]
pIC50 [1]: 7.09 | pIC50 [2]: 8.22

Nc1cc(C(=O)N2CC(c3nn(CC(=O)NC4CC(F)(F)C4)c4ccccc34)C2)ccn1 [Compound E-214, 2-{3-[1-(2-aminopyridine-4-carbonyl)azetidin-3-yl]-1H-indazol-1-yl}-N-(3,3-difluorocyclobutyl)acetamide]
pIC50 [1]: 6.42 | pIC50 [2]: 8.00

Nc1nc(C(F)(F)F)c(C(=O)N2CC(c3nn(CC(=O)N4CCC[C@H]4C(F)(F)F)c4cc(F)cc(F)c34)C2)s1 [Compound E-139, 2-(3-{1-[2-amino-4-(trifluoromethyl)-1,3-thiazole-5-carbonyl]azetidin-3-yl}-4,6-difluoro-1H-indazol-1-yl)-1-[(2S)-2-(trifluoromethyl)pyrrolidin-1-yl]ethan-1-one]
pIC50 [1]: 6.07 | pIC50 [2]: 7.74
